According to the supplement of paper PMC4862054:

Tests used:
[1] = tested on: DU-4475; experiment: normalised viability (% of control), CellTiter-Blue; higher = more viable cells (about 100 = DMSO control); details: 1000 nM; incubation time: 72 h
Experimental: (§1)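 DSRT, CellTiter-Blue viability, 72 h incubation. Signal is normalised to DMSO and benzethonium chloride controls. Value is the normalised response at dose 7.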

[2] = tested on: HDQ-P1; experiment: as above; details: 1000 nM; incubation time: 72 h
Experimental: as §1

[3] = tested on: MDA-MB-453; experiment: as above; details: 1000 nM; incubation time: 72 h
Experimental: as §1

[4] = tested on: CAL-85-1; experiment: as above; details: 1000 nM; incubation time: 72 h
Experimental: as §1

[5] = tested on: CAL-148; experiment: as above; details: 1000 nM; incubation time: 72 h
Experimental: as §1

[6] = tested on: CAL-51; experiment: as above; details: 1000 nM; incubation time: 72 h
Experimental: as §1

[7] = tested on: HCC1143; experiment: as above; details: 100 nM; incubation time: 72 h
Experimental: (§2)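 DSRT, CellTiter-Blue viability, 72 h incubation. Signal is normalised to DMSO and benzethonium chloride controls. Value is the normalised response at dose 3.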

[8] = tested on: MDA-MB-468; experiment: as above; details: 100 nM; incubation time: 72 h
Experimental: as §2

[9] = tested on: HCC1599; experiment: as above; details: 100 nM; incubation time: 72 h
Experimental: as §2

[10] = tested on: MDA-MB-231; experiment: as above; details: 100 nM; incubation time: 72 h
Experimental: as §2

[11] = tested on: CAL-120; experiment: as above; details: 100 nM; incubation time: 72 h
Experimental: as §2

[12] = tested on: MDA-MB-453; experiment: as above; details: 10 nM; incubation time: 72 h
Experimental: as §2

[13] = tested on: HCC1937; experiment: as above; details: 100 nM; incubation time: 72 h
Experimental: as §2

[14] = tested on: CAL-148; experiment: as above; details: 10 nM; incubation time: 72 h
Experimental: as §2

[15] = tested on: HCC1143; experiment: normalised viability (% of control), CellTiter-Blue; higher = more viable cells (100 = DMSO, 0 = benzethonium chloride kill control); details: 1 nM; incubation time: 72 h
Experimental: (§3)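 DSRT, CellTiter-Blue viability, 72 h incubation. Signal is normalised to DMSO and benzethonium chloride controls. Value is the normalised response at dose 1.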

[16] = tested on: BT-549; experiment: as above; details: 1 nM; incubation time: 72 h
Experimental: as §3

[17] = tested on: MDA-MB-468; experiment: as above; details: 1 nM; incubation time: 72 h
Experimental: as §3

[18] = tested on: DU-4475; experiment: as above; details: 1 nM; incubation time: 72 h
Experimental: as §3

[19] = tested on: HCC1599; experiment: as above; details: 1 nM; incubation time: 72 h
Experimental: as §3

[20] = tested on: MDA-MB-231; experiment: as above; details: 1 nM; incubation time: 72 h
Experimental: as §3

[21] = tested on: MDA-MB-436; experiment: as above; details: 1 nM; incubation time: 72 h
Experimental: as §3

[22] = tested on: MFM-223; experiment: as above; details: 1 nM; incubation time: 72 h
Experimental: as §3

[23] = tested on: CAL-120; experiment: as above; details: 1 nM; incubation time: 72 h
Experimental: as §3

[24] = tested on: HDQ-P1; experiment: as above; details: 1 nM; incubation time: 72 h
Experimental: as §3

[25] = tested on: MDA-MB-453; experiment: as above; details: 1 nM; incubation time: 72 h
Experimental: as §3

[26] = tested on: Hs578T; experiment: as above; details: 1 nM; incubation time: 72 h
Experimental: as §3

[27] = tested on: HCC1937; experiment: as above; details: 1 nM; incubation time: 72 h
Experimental: as §3

[28] = tested on: SK-BR-3; experiment: as above; details: 1 nM; incubation time: 72 h
Experimental: as §3

[29] = tested on: CAL-148; experiment: as above; details: 1 nM; incubation time: 72 h
Experimental: as §3

[30] = tested on: CAL-51; experiment: as above; details: 1 nM; incubation time: 72 h
Experimental: as §3

Compound: CC[C@H](Nc1ncnc2[nH]cnc12)c1nc2cccc(F)c2c(=O)n1-c1ccccc1 [CAL-101]
- normalised viability [1]: 87.8%
- normalised viability [2]: 82.4%
- normalised viability [3]: 87.7%
- normalised viability [4]: 80.5%
- normalised viability [5]: 79.9%
- normalised viability [6]: 81.9%
- normalised viability [7]: 102%
- normalised viability [8]: 115%
- normalised viability [9]: 73.6%
- normalised viability [10]: 80.9%
- normalised viability [11]: 97.2%
- normalised viability [12]: 97.4%
- normalised viability [13]: 97.1%
- normalised viability [14]: 96.2%
- normalised viability [15]: 94%
- normalised viability [16]: 97.9%
- normalised viability [17]: 100%
- normalised viability [18]: 106%
- normalised viability [19]: 82.4%
- normalised viability [20]: 82.3%
- normalised viability [21]: 116%
- normalised viability [22]: 91.1%
- normalised viability [23]: 104%
- normalised viability [24]: 89.5%
- normalised viability [25]: 89.8%
- normalised viability [26]: 118%
- normalised viability [27]: 121%
- normalised viability [28]: 97.4%
- normalised viability [29]: 91.3%
- normalised viability [30]: 88.6%

Compound: C=CC(=O)Nc1cc2c(Nc3ccc(F)c(Cl)c3)ncnc2cc1OCCCN1CCOCC1 [Canertinib]
- normalised viability [1]: 114%
- normalised viability [2]: 55.4%
- normalised viability [3]: 33.8%
- normalised viability [4]: 49.5%
- normalised viability [5]: 68.6%
- normalised viability [6]: 101%
- normalised viability [7]: 90.1%
- normalised viability [8]: 67.1%
- normalised viability [9]: 91.8%
- normalised viability [10]: 91.7%
- normalised viability [11]: 81.5%
- normalised viability [12]: 95%
- normalised viability [13]: 97.4%
- normalised viability [14]: 81.9%
- normalised viability [15]: 90.2%
- normalised viability [16]: 110%
- normalised viability [17]: 110%
- normalised viability [18]: 98.5%
- normalised viability [19]: 94.8%
- normalised viability [20]: 98.5%
- normalised viability [21]: 97.5%
- normalised viability [22]: 92.8%
- normalised viability [23]: 84.4%
- normalised viability [24]: 88.3%
- normalised viability [25]: 103%
- normalised viability [26]: 103%
- normalised viability [27]: 90.6%
- normalised viability [28]: 86.2%
- normalised viability [29]: 99.5%
- normalised viability [30]: 109%

Compound: O=C(O)C1(C(=O)O)CCC1.[NH2-].[NH2-].[Pt+2] [Carboplatin]
- normalised viability [1]: 97.3%
- normalised viability [2]: 97.1%
- normalised viability [3]: 99.3%
- normalised viability [4]: 81.5%
- normalised viability [5]: 103%
- normalised viability [6]: 99.9%
- normalised viability [7]: 86.4%
- normalised viability [8]: 98.8%
- normalised viability [9]: 92.8%
- normalised viability [10]: 92.7%
- normalised viability [11]: 88%
- normalised viability [12]: 103%
- normalised viability [13]: 94.5%
- normalised viability [14]: 92.4%
- normalised viability [15]: 90.7%
- normalised viability [16]: 95.2%
- normalised viability [17]: 100%
- normalised viability [18]: 104%
- normalised viability [19]: 91.3%
- normalised viability [20]: 105%
- normalised viability [21]: 102%
- normalised viability [22]: 96.6%
- normalised viability [23]: 84.1%
- normalised viability [24]: 109%
- normalised viability [25]: 98.7%
- normalised viability [26]: 125%
- normalised viability [27]: 80.9%
- normalised viability [28]: 105%
- normalised viability [29]: 96.9%
- normalised viability [30]: 99.2%
